What was measured:
Assay type in all cases: binding
TEAD2 = TEAD2 (Homo sapiens (Human), UniProt Q15562); assay: TEAD lipid pocket TR-FRET (Lipid HTRF) probe competition assay; settings: 30 mins incubation with compound; read-out: Lipid HTRF TEAD2 IC50
Protocol: (§1) His-tagged TEAD proteins are pre-incubated with TEAD project compounds for 30 minutes or 4 hours at room temperature. Biotinylated lipid pocket probes are then added to the TEAD/Compound mixture and incubated for 60 minutes at room temperature. The lipid pocket probe competes with the test compound for the TEAD lipid pocket until equilibrium is reached. After 60 minutes, Europium labelled anti-His (Perkin Elmer #ADO 110) and XL665 labelled streptavidin (CIS Bio 610SAXAC) are added to the TEAD/test compound/lipid pocket mixture and incubated for 30 minutes or 4 hours. […] If a TEAD lipid pocket binder such as binds and displaces the lipid pocket probe, the disruption of the TEAD:probe interaction results in a decrease in TR-FRET signal. The potency of compounds as TEAD lipid pocket binders is determined by IC50 value generated using a non-linear 4 parameter curve fit.
(§2) Note that the “Compound Number” in Table 2 and Table 3 corresponds to the “Compound Number” in Table 1.

TEAD1 = TEAD1 (Homo sapiens (Human), UniProt P28347); assay: as above; settings: 30 mins incubation with compound; read-out: Lipid HTRF TEAD1 IC50
Chain of TEAD1 (P28347 whole entry, species assumed): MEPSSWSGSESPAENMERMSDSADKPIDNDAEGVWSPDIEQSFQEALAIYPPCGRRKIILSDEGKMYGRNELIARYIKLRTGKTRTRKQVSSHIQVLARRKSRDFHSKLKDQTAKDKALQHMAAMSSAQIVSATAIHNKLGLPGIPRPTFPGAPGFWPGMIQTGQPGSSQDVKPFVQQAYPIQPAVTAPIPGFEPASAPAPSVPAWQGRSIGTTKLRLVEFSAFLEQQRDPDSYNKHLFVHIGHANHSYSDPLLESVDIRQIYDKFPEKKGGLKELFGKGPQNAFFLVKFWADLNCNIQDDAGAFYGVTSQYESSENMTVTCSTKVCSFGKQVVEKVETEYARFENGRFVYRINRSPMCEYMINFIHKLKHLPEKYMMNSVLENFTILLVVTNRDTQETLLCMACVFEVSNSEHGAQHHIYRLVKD
Protocol: as §1, §2

TEAD3 = TEAD3 (Homo sapiens (Human), UniProt Q99594); assay: as above; settings: 30 mins incubation with compound
Chain of TEAD3 (Q99594 whole entry, species assumed): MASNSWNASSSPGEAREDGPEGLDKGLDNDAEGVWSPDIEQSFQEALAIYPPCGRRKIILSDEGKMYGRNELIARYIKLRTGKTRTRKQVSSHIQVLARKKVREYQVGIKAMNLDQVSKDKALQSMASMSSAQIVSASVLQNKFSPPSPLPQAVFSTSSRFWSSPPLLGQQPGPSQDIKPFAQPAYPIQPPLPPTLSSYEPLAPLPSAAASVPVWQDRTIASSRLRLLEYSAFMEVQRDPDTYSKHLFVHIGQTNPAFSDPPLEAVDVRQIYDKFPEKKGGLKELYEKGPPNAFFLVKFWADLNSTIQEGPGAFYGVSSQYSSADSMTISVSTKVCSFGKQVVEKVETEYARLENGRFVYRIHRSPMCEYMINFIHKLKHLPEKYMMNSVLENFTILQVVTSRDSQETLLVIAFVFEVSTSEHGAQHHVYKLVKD
Protocol: as §1, §2

TEAD4 = TEAD4 (Homo sapiens (Human), UniProt Q15561); assay: as above; settings: 30 mins incubation with compound; read-out: Lipid HTRF TEAD4 IC50
Chain of TEAD4 (Q15561 whole entry, species assumed): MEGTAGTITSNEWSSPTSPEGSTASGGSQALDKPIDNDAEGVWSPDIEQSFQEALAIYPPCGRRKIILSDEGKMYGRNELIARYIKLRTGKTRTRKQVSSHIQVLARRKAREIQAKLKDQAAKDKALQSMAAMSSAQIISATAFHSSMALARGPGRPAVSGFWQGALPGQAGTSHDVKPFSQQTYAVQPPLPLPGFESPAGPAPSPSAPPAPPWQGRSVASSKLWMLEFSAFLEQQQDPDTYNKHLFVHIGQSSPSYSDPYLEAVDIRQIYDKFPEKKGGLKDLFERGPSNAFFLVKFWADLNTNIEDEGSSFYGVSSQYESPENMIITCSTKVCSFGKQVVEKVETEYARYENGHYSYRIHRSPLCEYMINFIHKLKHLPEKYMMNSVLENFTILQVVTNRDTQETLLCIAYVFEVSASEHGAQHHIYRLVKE
Protocol: as §1, §2

TEAD2 YAP50-100 = TEAD2 YAP50-100 (Homo sapiens (Human), UniProt Q15562); assay: TEAD-YAP protein-protein interaction HTRF assay; settings: TEAD2 YAP50-100 HTRF combined EC50, 30 mins incubation with compound
Chain of TEAD2 YAP50-100 (Q15562 217-447): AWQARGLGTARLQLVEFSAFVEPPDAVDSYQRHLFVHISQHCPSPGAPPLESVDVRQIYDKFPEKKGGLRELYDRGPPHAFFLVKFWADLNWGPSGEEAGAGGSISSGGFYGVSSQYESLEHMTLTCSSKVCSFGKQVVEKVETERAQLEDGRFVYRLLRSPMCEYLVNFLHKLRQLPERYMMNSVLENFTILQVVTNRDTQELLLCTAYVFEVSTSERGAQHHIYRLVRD
Protocol: (§3) Purified His-tagged TEAD protein (YAP Binding Domain, amino acids 217-447) is pre-incubated with Europium labelled anti-His antibody tracer (Perkin Elmer Cat #AD0110). Small molecule Inhibitors are then incubated with the TEAD-Eu protein complex for 30 minutes or 4 hours to allow for binding to TEAD protein. Biotinylated YAP peptide for TEAD-YAP assays (AA's 50-100) or biotinylated TAZ peptide for TEAD-TAZ assays (AA's 13-57) that has been pre-incubated with streptavidin −xl665 acceptor (CIS-Bio Cat #610SAXAC) or is added to the compound-TEAD mix. The TEAD-YAP-inhibitor mixture is then incubated for 60 minutes at room temperature. All reactions are carried out in a polystyrene plate. After 60 minutes, the plate is read on a plate reader using TR-FRET mode with wavelengths of 665 nm/615 nm. If YAP or TAZ binds to TEAD as expected, a TR-FRET signal results from the proximity of YAP or TAZ and TEAD after binding. If an inhibitor such as peptide 17 (Selleckchem Cat #S8164) interferes with YAP-TEAD or TAZ-TEAD binding, the disruption of the YAP or TAZ:TEAD interaction results in a decrease in TR-FRET signal. The potency of compounds as YAP:TEAD or TAZ:TEAD protein-protein interaction (PPi) inhibitors is determined by an IC50 or EC50 value generated using a non-linear four parameter curve fit. The extent to which representative examples of the disclosed compounds are able to inhibit interaction between TEAD1, TEAD2, TEAD3 or TEAD4 and YAP truncated from amino acids 50-100 or TAZ truncated from amino acids 13-57 as measured by Homogeneous Time Resolved Fluorescence (HTRF) to generate EC50 and IC50 data.
(§4) Note that the “Compound Number” in Table 4 corresponds to the “Compound Number” in Table 1. […]

TEAD4 YAP50-100 = TEAD4 YAP50-100 (Homo sapiens (Human), UniProt Q15561); assay: TEAD-YAP protein-protein interaction HTRF assay; settings: TEAD4 YAP50-100 HTRF combined EC50, 30 mins incubation with compound
Chain of TEAD4 YAP50-100 (Q15561 217-434): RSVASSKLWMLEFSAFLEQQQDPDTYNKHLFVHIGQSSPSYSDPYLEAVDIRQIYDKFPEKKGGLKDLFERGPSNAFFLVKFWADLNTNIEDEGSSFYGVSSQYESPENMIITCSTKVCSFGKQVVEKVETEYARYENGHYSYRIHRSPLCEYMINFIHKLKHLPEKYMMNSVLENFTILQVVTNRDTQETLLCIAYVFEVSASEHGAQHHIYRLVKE
Protocol: as §3, §4

TEAD1 YAP50-100 = TEAD1 YAP50-100 (Homo sapiens (Human), UniProt P28347); assay: TEAD-YAP protein-protein interaction HTRF assay; settings: TEAD1 YAP50-100 HTRF combined EC50, 30 mins incubation with compound
Chain of TEAD1 YAP50-100 (P28347 209-426): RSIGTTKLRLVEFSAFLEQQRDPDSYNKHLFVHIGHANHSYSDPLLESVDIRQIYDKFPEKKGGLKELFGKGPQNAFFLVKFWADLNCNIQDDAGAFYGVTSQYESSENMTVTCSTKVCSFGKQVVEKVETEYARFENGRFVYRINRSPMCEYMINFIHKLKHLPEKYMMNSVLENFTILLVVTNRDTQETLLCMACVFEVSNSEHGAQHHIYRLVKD
Protocol: as §3, §4

TEAD3 YAP50-100 = TEAD3 YAP50-100 (Homo sapiens (Human), UniProt Q99594); assay: TEAD-YAP protein-protein interaction HTRF assay; settings: TEAD3 YAP50-100 HTRF combined EC50, 30 mins incubation with compound
Chain of TEAD3 YAP50-100 (Q99594 218-435): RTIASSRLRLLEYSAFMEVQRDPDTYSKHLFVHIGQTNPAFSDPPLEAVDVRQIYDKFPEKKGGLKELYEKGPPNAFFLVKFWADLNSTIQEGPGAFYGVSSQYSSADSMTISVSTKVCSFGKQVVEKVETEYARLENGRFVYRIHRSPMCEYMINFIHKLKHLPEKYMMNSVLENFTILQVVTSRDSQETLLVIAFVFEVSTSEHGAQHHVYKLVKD
Protocol: as §3, §4

Chain of TEAD2 (Q15562 whole entry): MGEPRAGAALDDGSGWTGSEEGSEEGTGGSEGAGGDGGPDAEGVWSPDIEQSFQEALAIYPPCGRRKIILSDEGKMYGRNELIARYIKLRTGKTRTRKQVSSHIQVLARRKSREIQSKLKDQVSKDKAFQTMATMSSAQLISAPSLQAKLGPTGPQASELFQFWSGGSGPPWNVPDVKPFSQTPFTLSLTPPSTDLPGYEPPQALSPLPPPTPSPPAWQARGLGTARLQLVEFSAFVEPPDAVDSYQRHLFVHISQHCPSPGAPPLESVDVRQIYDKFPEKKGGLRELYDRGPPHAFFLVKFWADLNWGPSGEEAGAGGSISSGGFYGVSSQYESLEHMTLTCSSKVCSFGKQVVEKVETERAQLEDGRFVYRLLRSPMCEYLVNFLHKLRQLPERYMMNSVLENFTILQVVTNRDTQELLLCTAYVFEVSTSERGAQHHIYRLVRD

SMILES	IC50 (TEAD2)	IC50 (TEAD1)	IC50 (TEAD3)	IC50 (TEAD4)	EC50 (TEAD2 YAP50-100)	EC50 (TEAD4 YAP50-100)	EC50 (TEAD1 YAP50-100)	EC50 (TEAD3 YAP50-100)
C=C(CNc1cc(-c2ccc(C(C)C)cc2F)c2c(c1C#N)CCO2)C(=O)O [Compound 30, 2-[[[4-cyano-7-(2-fluoro-4-isopropyl-phenyl)-2,3-dihydrobenzofuran-5-yl]amino]methyl]prop-2-enoic acid]	100 nM	50 nM	5900 nM	30 nM	40 nM	40 nM	30 nM	8200 nM
C=C(CN(C)c1cc(-c2ccc(C(C)C)cc2)c2c(c1C#N)CCO2)C(=O)O [Compound 7, 2-[[[4-cyano-7-(4-isopropylphenyl)-2,3-dihydrobenzofuran-5-yl]-methyl-amino]methyl]prop-2-enoic acid]	230 nM	540 nM	14000 nM	160 nM	180 nM	430 nM	510 nM	> 50000 nM
C=C(CNc1cc(-c2ccc(C(C)C)cc2)c2c(c1CO)CCO2)C(=O)O [Compound 12, 2-[[[4-(hydroxymethyl)-7-(4-isopropylphenyl)-2,3-dihydrobenzofuran-5-yl]amino]methyl]prop-2-enoic acid]	930 nM	1500 nM	47000 nM	470 nM	300 nM	750 nM	780 nM	> 50000 nM
C=C(CNc1cnc(OC)c(/C=C/[C@H]2CC[C@H](C(F)(F)F)CC2)c1)C(=O)O [Compound 25, 2-[[[6-methoxy-5-[(E)-2-[trans-4-(trifluoromethyl)cyclohexyl]vinyl]-3-pyridyl]amino]methyl]prop-2-enoic acid]	270 nM	580 nM	1250 nM	140 nM	> 50000 nM	> 50000 nM	> 50000 nM	> 50000 nM
C=C(CNc1cc(-c2ccc(C(C)C)cc2)c2c(c1F)CCO2)C(=O)O [Compound 21, 2-[[[4-fluoro-7-(4-isopropylphenyl)-2,3-dihydrobenzofuran-5-yl]amino]methyl]prop-2-enoic acid]	70 nM	60 nM	4000 nM	20 nM	< 10 nM	30 nM	40 nM	> 50000 nM
C=C(CNc1cc(-c2ccc(C(C)C)cc2)c2c(c1C(N)=O)CCO2)C(=O)O [Compound 34, 2-[[[4-carbamoyl-7-(4-isopropylphenyl)-2,3-dihydrobenzofuran-5-yl]amino]methyl]prop-2-enoic acid]	970 nM	1800 nM	> 50000 nM	330 nM	580 nM	700 nM	1000 nM	> 50000 nM
C=C(CNc1cc(-c2ccc(C(C)C)cc2)c2c(c1CO)CCO2)C(=O)NO [Compound 14, 2-[[[4-(hydroxymethyl)-7-(4-isopropylphenyl)-2,3-dihydrobenzofuran-5-yl]amino]methyl]prop-2-enehydroxamic acid]	120 nM	520 nM	2400 nM	420 nM	70 nM	890 nM	280 nM	3400 nM
C=C(CNc1cc(-c2ccc(C(C)C(F)(F)F)cc2)c2c(c1C#N)CCO2)C(=O)O (single isomer, unassigned) [Enantiomer C from Example 16, 2-(((4-cyano-7-(4-(1,1,1-trifluoropropan-2-yl)phenyl)-2,3-dihydrobenzofuran-5-yl)amino)methyl)acrylic acid]	40 nM	20 nM	3000 nM	10 nM	20 nM	10 nM	10 nM	5900 nM
C=C(CNc1nc2c(c(-c3ccc(C(C)C)cc3)n1)OCC2)C(=O)O [Compound 20, 2-[[[4-(4-isopropylphenyl)-6,7-dihydrofuro[3,2-d]pyrimidin-2-yl]amino]methyl]prop-2-enoic acid]	70 nM	200 nM	3800 nM	20 nM	40 nM	40 nM	150 nM	> 50000 nM
C=C(CNc1cc(-c2ccc(C(C)C)cc2)c2c(c1C#N)CCO2)C(=O)NC [Compound 5, 2-[[[4-cyano-7-(4-isopropylphenyl)-2,3-dihydrobenzofuran-5-yl]amino]methyl]-N-methyl-prop-2-enamide]	2000 nM	1600 nM	> 50000 nM	1300 nM	> 50000 nM	> 50000 nM	> 50000 nM	> 50000 nM
C=C(CNc1cc(-c2ccc(C(F)(F)F)cc2)c2c(c1C#N)CCO2)C(=O)O [Compound 15, 2-[[[4-cyano-7-[4-(trifluoromethyl)phenyl]-2,3-dihydrobenzofuran-5-yl]amino]methyl]prop-2-enoic acid]	530 nM	50 nM	3400 nM	110 nM	380 nM	250 nM	40 nM	11000 nM
C=C(CNc1nc(-c2ccc(C(C)C)cc2)c2c(c1C#N)CCO2)C(=O)O [Compound 22, 2-[[[4-cyano-7-(4-isopropylphenyl)-2,3-dihydrofuro[2,3-c]pyridin-5-yl]amino]methyl]prop-2-enoic acid]	100 nM	90 nM	15000 nM	50 nM	60 nM	100 nM	60 nM	> 50000 nM
C=C(CNc1cc(-c2ccc(OC(F)(F)F)cc2)c2c(c1C#N)CCO2)C(=O)O [Compound 18, 2-[[[4-cyano-7-[4-(trifluoromethoxy)phenyl]-2,3-dihydrobenzofuran-5-yl]amino]methyl]prop-2-enoic acid]	140 nM	30 nM	2500 nM	30 nM	90 nM	60 nM	20 nM	7800 nM
C=C(CNc1cc(-c2ccc(C(C)C)cc2)c2c(c1S(C)(=O)=O)CCO2)C(=O)O [Compound 50, 2-[[[7-(4-isopropylphenyl)-4-methylsulfonyl-2,3-dihydrobenzofuran-5-yl]amino]methyl]prop-2-enoic acid]	100 nM	740 nM	44500 nM	590 nM	80 nM	2000 nM	530 nM	17000 nM
C=C(CNc1cc(-c2ccc(C(C)C)cc2)c2c(c1C#N)CCO2)C(=O)OC [Compound 8, methyl 2-[[[4-cyano-7-(4-isopropylphenyl)-2,3-dihydrobenzofuran-5-yl]amino]methyl]prop-2-enoate]	40 nM	70 nM	240 nM	20 nM	> 50000 nM	> 50000 nM	> 50000 nM	> 50000 nM
C=C(CNc1cc2c(c(-c3ccc(C(C)C)cc3)c1)OCC2)C(=O)O [Compound 1, 2-[[[7-(4-isopropylphenyl)-2,3-dihydrobenzofuran-5-yl]amino]methyl]prop-2-enoic acid]	220 nM	220 nM	8400 nM	40 nM	100 nM	50 nM	170 nM	> 50000 nM

— patent publication US11787775B2, “Therapeutic compounds and methods of use” (priority 2020, dated 2023)
